Experiments:
[1] = target: T1, Complex of human HDAC3 and human NCOR2 (Homo sapiens, UniProt O15379); experiment: HDAC3 biochemical assay, AMC-labeled peptide substrate; details: read-out: HDAC Isoform IC50 (nM) 3
T1 construct: full length with C-terminal His tag, MW=49.7 kDa; His (C); host or cells: baculovirus expression system (co-expressed)
Method in brief: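 Baculovirus-coexpressed His-tagged full-length HDAC3 with GST-NCOR2 (aa 395-489), 0.1 ng/ul, deacetylates 50 μM RHKK(Ac)AMC in Tris-HCl pH8.0 with BSA and 1% DMSO, 1 h at 30° C. Developer then cleaves deacetylated substrate; fluorescence read at 360/460 Ex/Em.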

Recombinant human HDAC6 = target: T2, Recombinant human HDAC6 (Homo sapiens, UniProt Q9UBN7); experiment: HDAC6 biochemical assay, AMC-labeled peptide substrate; details: HDAC6; read-out: HDAC Isoform IC50 (nM) 6
T2 construct: full length, MW=159 kDa; GST (N); host or cells: Sf9 insect cells (baculovirus)
T2 sequence (Q9UBN7 1-1215): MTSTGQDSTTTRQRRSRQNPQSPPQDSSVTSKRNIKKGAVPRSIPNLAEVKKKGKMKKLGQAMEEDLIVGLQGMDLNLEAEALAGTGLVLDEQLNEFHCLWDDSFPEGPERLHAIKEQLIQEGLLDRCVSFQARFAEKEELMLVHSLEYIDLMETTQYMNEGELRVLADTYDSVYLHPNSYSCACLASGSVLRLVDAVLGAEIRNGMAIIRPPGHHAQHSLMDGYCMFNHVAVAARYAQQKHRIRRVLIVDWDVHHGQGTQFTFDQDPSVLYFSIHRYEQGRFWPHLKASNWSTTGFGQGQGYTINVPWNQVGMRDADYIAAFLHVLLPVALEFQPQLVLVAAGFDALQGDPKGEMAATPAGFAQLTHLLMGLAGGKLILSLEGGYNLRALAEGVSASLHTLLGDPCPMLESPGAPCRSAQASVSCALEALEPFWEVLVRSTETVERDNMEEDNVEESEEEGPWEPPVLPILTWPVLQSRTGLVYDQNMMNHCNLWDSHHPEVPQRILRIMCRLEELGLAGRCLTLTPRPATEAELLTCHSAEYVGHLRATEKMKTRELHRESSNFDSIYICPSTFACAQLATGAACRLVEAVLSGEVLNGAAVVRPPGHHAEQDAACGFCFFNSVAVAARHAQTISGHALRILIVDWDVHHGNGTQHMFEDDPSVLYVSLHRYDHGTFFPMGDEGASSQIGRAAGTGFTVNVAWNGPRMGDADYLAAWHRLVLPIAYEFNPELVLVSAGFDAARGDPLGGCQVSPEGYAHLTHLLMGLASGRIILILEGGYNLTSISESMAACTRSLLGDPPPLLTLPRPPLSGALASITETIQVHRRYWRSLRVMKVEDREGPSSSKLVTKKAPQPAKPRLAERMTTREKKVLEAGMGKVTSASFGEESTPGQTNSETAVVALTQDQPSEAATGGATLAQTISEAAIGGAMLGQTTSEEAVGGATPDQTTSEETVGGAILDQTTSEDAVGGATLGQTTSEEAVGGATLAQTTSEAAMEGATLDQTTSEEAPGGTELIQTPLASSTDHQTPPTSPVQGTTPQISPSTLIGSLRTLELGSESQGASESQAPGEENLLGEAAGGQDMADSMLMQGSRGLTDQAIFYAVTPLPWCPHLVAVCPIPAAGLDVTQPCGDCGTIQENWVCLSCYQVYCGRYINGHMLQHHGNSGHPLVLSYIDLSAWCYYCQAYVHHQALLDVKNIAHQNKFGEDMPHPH
Method in brief: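 Two-step fluorogenic read-out: enzyme deacetylates 50 μM RHKK(Ac)AMC for 1 h at 30° C in pH 8.0 Tris buffer with BSA and 1% DMSO, then developer cleavage gives signal at Ex 360/Em 460. Enzyme: 0.3 ng/ul recombinant full-length human HDAC6, GST-tagged, Sf9-expressed.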

Human HDAC11 = target: T3, Human HDAC11 (Homo sapiens, UniProt Q96DB2); experiment: HDAC11 biochemical assay, class IIa-specific substrate; details: read-out: HDAC Isoform IC50 (nM) 11
T3 construct: Human HDAC11 (full length); His (N); host or cells: baculovirus expression system
T3 sequence (Q96DB2 1-347): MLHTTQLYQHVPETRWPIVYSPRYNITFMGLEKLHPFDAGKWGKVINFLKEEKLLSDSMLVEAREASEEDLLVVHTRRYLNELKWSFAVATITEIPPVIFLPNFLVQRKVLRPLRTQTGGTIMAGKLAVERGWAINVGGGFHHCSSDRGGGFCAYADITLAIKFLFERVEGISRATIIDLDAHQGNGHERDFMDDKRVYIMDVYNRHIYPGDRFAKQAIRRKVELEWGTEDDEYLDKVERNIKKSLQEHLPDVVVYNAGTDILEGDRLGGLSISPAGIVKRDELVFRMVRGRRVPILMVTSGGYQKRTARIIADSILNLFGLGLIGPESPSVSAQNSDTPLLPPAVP
Method in brief: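 Full-length N-His human HDAC11 from baculovirus, 5 ng/μl, incubated with 50 μM Boc-Lys(trifluoroacetyl)-AMC for 30 min at 30 °C. Buffer: 50 mM Tris-HCl pH 8.0, 137 mM NaCl, 2.7 mM KCl, 1 mM MgCl2, 1 mg/mL BSA, 1% DMSO. Developer releases AMC; fluorescence read at 360/460 nm.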

T1 sequence (O15379 whole entry, canonical isoform): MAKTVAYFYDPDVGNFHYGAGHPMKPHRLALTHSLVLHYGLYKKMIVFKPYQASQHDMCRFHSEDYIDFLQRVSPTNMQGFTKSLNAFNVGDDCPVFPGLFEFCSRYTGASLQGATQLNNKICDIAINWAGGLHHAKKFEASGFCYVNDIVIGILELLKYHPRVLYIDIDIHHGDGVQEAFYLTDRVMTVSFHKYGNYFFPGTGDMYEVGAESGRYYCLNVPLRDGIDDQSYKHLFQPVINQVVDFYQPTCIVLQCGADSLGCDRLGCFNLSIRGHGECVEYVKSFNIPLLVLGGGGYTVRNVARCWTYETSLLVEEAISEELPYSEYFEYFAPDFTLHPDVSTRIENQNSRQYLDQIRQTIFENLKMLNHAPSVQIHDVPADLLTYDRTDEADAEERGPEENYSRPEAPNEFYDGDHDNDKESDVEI
T1 sequence (Q9Y618 395-489 partner limits assumed): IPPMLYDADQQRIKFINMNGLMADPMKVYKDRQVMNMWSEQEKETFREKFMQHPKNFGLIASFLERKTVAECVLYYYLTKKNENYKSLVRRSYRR

Structure (SMILES) | IC50 [1] [nM] | IC50 (Recombinant human HDAC6) [nM] | IC50 (Human HDAC11) [nM]
O=C(O)c1cnnc(N(Cc2ccc(-c3noc(C(F)(F)F)n3)s2)c2cnccn2)c1 [Example DW, 6-[(Pyrazin-2-yl)({5-[5-(trifluoromethyl)-1,2,4-oxadiazol-3-yl]thiophen-2-yl}methyl)amino]pyridazine-4-carboxylic acid] | > 10000 | ≤ 500 | > 10000
O=C(c1ccc(N(Cc2ccc(-c3noc(C(F)(F)F)n3)s2)c2cnccn2)nn1)N1C[C@@H]2C[C@H]1CO2 [Example FE, 6-[(1S,4S)-2-Oxa-5-azabicyclo[2.2.1]heptane-5-carbonyl]-N-(pyrazin-2-yl)-N-({5-[5-(trifluoromethyl)-1,2,4-oxadiazol-3-yl]thiophen-2-yl}methyl)pyridazin-3-amine] | ≤ 10000 | ≤ 500 | > 10000
O=C(c1ccc(N(Cc2ccc(-c3noc(C(F)(F)F)n3)s2)c2cnccn2)nn1)N1CCC2(COC2)C1 [Example FJ, 6-{2-Oxa-6-azaspiro[3.4]octane-6-carbonyl}-N-(pyrazin-2-yl)-N-({5-[5-(trifluoromethyl)-1,2,4-oxadiazol-3-yl]thiophen-2-yl}methyl)pyridazin-3-amine] | ≤ 10000 | ≤ 500 | > 10000
O=C(c1cnnc(N(Cc2ccc(-c3noc(C(F)(F)F)n3)s2)c2cnccn2)c1)N1CCS(=O)(=O)CC1 [Example ED, 4-{6-[(Pyrazin-2-yl)({5-[5-(trifluoromethyl)-1,2,4-oxadiazol-3-yl]thiophen-2-yl}methyl)amino]pyridazine-4-carbonyl}-1λ^6-thiomorpholine-1,1-dione] | > 10000 | ≤ 500 | > 10000
FC(F)(F)c1nc(-c2ccc(CN(c3cnccn3)c3cnccn3)s2)no1 [Example BA, N-(Pyrazin-2-yl)-N-({5-[5-(trifluoromethyl)-1,2,4-oxadiazol-3-yl]thiophen-2-yl}methyl)pyrazin-2-amine] | > 10000 | ≤ 500 | > 10000
O=C(c1ccc(N(Cc2ccc(-c3noc(C(F)(F)F)n3)s2)c2cnccn2)nn1)N1CCOCC1 [Example DS, 6-(Morpholine-4-carbonyl)-N-(pyrazin-2-yl)-N-({5-[5-(trifluoromethyl)-1,2,4-oxadiazol-3-yl]thiophen-2-yl}methyl)pyridazin-3-amine] | ≤ 10000 | ≤ 500 | > 10000
CN1CCN(C(=O)c2cnnc(N(Cc3ccc(-c4noc(C(F)(F)F)n4)s3)c3cnccn3)c2)CC1 [Example EC, 5-(4-Methylpiperazine-1-carbonyl)-N-(pyrazin-2-yl)-N-({5-[5-(trifluoromethyl)-1,2,4-oxadiazol-3-yl]thiophen-2-yl}methyl)pyridazin-3-amine] | > 10000 | ≤ 500 | > 10000
O=C(c1ccc(N(Cc2ccc(-c3noc(C(F)(F)F)n3)s2)c2cnccn2)nn1)N1CCC1 [Example FF, 6-(Azetidine-1-carbonyl)-N-(pyrazin-2-yl)-N-({5-[5-(trifluoromethyl)-1,2,4-oxadiazol-3-yl]thiophen-2-yl}methyl)pyridazin-3-amine] | ≤ 10000 | ≤ 500 | > 10000
Nc1cnnc(N(Cc2ccc(-c3noc(C(F)(F)F)n3)s2)c2cnccn2)c1 [Example FL, N3-(Pyrazin-2-yl)-N3-({5-[5-(trifluoromethyl)-1,2,4-oxadiazol-3-yl]thiophen-2-yl}methyl)pyridazine-3,5-diamine] | > 10000 | ≤ 500 | > 10000
FC(F)(F)c1nc(-c2ccc(CN(c3cnccn3)c3cc(N4CCOCC4)cnn3)s2)no1 [Example FP, 5-(Morpholin-4-yl)-N-(pyrazin-2-yl)-N-({5-[5-(trifluoromethyl)-1,2,4-oxadiazol-3-yl]thiophen-2-yl}methyl)pyridazin-3-amine] | > 10000 | ≤ 500 | > 10000
CC(=O)Nc1cnnc(N(Cc2ccc(-c3noc(C(F)(F)F)n3)s2)c2cnccn2)c1 [Example FM, N-{6-[(Pyrazin-2-yl)({5-[5-(trifluoromethyl)-1,2,4-oxadiazol-3-yl]thiophen-2-yl}methyl)amino]pyridazin-4-yl}acetamide] | > 10000 | ≤ 500 | > 10000

Second part, the compound after the results:

IC50 [1] [nM] | IC50 (Recombinant human HDAC6) [nM] | IC50 (Human HDAC11) [nM] | Structure (SMILES)
> 10000 | ≤ 500 | > 10000 | CN(C(=O)c1cnnc(N(Cc2ccc(-c3noc(C(F)(F)F)n3)s2)c2cnccn2)c1)S(C)(=O)=O [Example GE, N-Methanesulfonyl-N-methyl-6-[(pyrazin-2-yl)({5-[5-(trifluoromethyl)-1,2,4-oxadiazol-3-yl]thiophen-2-yl}methyl)amino]pyridazine-4-carboxamide]
> 10000 | ≤ 500 | > 10000 | O=C(c1cnnc(N(Cc2ccc(-c3noc(C(F)(F)F)n3)s2)c2cnccn2)c1)N1CC[S+]([O-])CC1 [Example FU, 4-{6-[(Pyrazin-2-yl)({5-[5-(trifluoromethyl)-1,2,4-oxadiazol-3-yl]thiophen-2-yl}methyl)amino]pyridazine-4-carbonyl}-1lambda4-thiomorpholin-1-one]
> 10000 | ≤ 500 | > 10000 | O=C(c1cnnc(N(Cc2ccc(-c3noc(C(F)(F)F)n3)s2)c2cnccn2)c1)N1CC2CCC(C1)O2 [Example GA, 5-{8-Oxa-3-azabicyclo[3.2.1]octane-3-carbonyl}-N-(pyrazin-2-yl)-N-({5-[5-(trifluoromethyl)-1,2,4-oxadiazol-3-yl]thiophen-2-yl}methyl)pyridazin-3-amine]
> 10000 | ≤ 500 | > 10000 | FC(F)c1cnnc(N(Cc2ccc(-c3noc(C(F)(F)F)n3)s2)c2cnccn2)c1 [Example GV, 5-(Difluoromethyl)-N-(pyrazin-2-yl)-N-({5-[5-(trifluoromethyl)-1,2,4-oxadiazol-3-yl]thiophen-2-yl}methyl)pyridazin-3-amine]
> 10000 | ≤ 500 | > 10000 | C[C@H]1CCCN1C(=O)c1cnnc(N(Cc2ccc(-c3noc(C(F)(F)F)n3)s2)c2cnccn2)c1 [Example GY, 5-[(2S)-2-Methylpyrrolidine-1-carbonyl]-N-(pyrazin-2-yl)-N-({5-[5-(trifluoromethyl)-1,2,4-oxadiazol-3-yl]thiophen-2-yl}methyl)pyridazin-3-amine]
> 10000 | ≤ 500 | > 10000 | CC(C)OC1CN(C(=O)c2cnnc(N(Cc3ccc(-c4noc(C(F)(F)F)n4)s3)c3cnccn3)c2)C1 [Example GC, 5-[3-(Propan-2-yloxy)azetidine-1-carbonyl]-N-(pyrazin-2-yl)-N-({5-[5-(trifluoromethyl)-1,2,4-oxadiazol-3-yl]thiophen-2-yl}methyl)pyridazin-3-amine]

From patent publication US20210038607A1, “OXADIAZOLYLTHIOPHENE DERIVATIVES USEFUL AS HISTONE DEACETYLASE INHIBITORS” (Karus Therapeutics Limited, priority 2018, published 2021)
